Measured values as given in patent publication US9108930B2, “N1- and N2-carbamoyl-1,2,3-triazole serine hydrolase inhibitors and methods” (The Scripps Research Institute, priority 2011, dated 2015).
pIC50: −log10 of the molar value. Values joined by “and” are separate entries in the source; they are usually repeats but may differ in a detail not shown here. Identical values can stand only once.

Legend:
[1] = target: PAFAH2 (Mus musculus, UniProt Q8VDG7); assay: Gel-based competitive ABPP, mouse T-cell proteome in vitro; type: biochemical; details: 30 minutes at 37° C.
PAFAH2, sequence (Q8VDG7 whole entry): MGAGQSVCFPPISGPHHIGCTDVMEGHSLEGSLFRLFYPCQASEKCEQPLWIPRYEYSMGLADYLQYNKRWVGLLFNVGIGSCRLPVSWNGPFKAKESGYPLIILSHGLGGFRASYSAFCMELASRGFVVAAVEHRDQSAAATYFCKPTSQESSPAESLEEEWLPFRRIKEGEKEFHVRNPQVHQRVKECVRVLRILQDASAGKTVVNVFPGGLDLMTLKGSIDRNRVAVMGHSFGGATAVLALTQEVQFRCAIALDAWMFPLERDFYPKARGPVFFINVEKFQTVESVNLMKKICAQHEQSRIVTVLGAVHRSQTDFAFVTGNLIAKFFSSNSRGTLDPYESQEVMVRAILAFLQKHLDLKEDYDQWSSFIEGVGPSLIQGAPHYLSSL

[2] = target: T1, DAGLB (Mus musculus, UniProt Q91WC9); assay: Gel-based ABPP assay against recombinant DAGLB (HEK293T-DAGLB lysates); type: biochemical; set-up: Full-length cDNAs encoding serine hydrolases were purchased from Open Biosystems; V5; host or cells: HEK293T; details: for activity against DAGLB: recombinant
T1 sequence (Q91WC9 1-669): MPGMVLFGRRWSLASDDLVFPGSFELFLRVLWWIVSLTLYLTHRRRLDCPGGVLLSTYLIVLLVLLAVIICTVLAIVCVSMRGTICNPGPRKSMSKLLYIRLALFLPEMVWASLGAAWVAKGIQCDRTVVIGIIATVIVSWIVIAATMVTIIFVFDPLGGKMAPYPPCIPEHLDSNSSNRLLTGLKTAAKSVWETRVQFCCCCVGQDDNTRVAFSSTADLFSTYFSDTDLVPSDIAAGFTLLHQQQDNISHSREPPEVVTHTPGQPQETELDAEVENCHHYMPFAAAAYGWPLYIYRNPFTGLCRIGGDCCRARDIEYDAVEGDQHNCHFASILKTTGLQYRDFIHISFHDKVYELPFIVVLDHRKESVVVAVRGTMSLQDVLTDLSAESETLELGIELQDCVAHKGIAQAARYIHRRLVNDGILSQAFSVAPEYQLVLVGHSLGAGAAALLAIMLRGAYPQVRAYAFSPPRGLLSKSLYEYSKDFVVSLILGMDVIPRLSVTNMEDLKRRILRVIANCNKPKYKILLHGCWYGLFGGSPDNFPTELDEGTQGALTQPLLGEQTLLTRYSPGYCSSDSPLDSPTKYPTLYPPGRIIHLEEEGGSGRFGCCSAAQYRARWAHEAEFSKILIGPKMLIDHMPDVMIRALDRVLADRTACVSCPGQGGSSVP

[3] = test system: serine hydrolases in mouse brain proteome; assay: Selectivity profile by competitive ABPP (mouse brain proteome), DAGL series; type: biochemical
[4] = target: T2, ABHD11 (Mus musculus, UniProt Q8K4F5); assay: Gel-based competitive ABPP, mouse T-cell proteome in vitro; type: biochemical; details: for pIC50: in vitro, 30 minutes at 37° C.
T2 sequence (Q8K4F5 35-307): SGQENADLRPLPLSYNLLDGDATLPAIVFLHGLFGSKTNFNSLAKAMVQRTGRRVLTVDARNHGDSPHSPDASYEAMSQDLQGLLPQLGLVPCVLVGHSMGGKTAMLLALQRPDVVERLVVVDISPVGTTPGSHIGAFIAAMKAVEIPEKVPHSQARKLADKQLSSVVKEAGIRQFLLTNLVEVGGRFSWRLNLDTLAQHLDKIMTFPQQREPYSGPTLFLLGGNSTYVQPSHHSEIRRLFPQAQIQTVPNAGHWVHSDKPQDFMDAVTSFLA

[5] = target: T2, ABHD11; assay: ABPP-SILAC in living mouse T-cells; details: 3 nM inhibitor, 4 h
[6] = target: T2, ABHD11; assay: In situ inhibition in cultured mouse T-cells, gel-based competitive ABPP; type: cell-based; details: 4 h at 37° C.; read-out: potency of ABHD11 inactivation in cultured T-cells
[7] = test system: serine hydrolases (SHs) in mouse T-cell proteomes; assay: Gel-based competitive ABPP, mouse T-cell proteomes in vitro, SH reactivity profile; type: biochemical; details: 100 nM, 30 minutes at 37° C.
[8] = target: T3, APEH (Mus musculus, UniProt Q8R146); assay: Gel-based competitive ABPP, mouse T-cell proteome in vitro; type: biochemical; details: IC50 for APEH, in vitro, 30 minutes at 37° C., mouse
T3 sequence (Q8R146 1-732): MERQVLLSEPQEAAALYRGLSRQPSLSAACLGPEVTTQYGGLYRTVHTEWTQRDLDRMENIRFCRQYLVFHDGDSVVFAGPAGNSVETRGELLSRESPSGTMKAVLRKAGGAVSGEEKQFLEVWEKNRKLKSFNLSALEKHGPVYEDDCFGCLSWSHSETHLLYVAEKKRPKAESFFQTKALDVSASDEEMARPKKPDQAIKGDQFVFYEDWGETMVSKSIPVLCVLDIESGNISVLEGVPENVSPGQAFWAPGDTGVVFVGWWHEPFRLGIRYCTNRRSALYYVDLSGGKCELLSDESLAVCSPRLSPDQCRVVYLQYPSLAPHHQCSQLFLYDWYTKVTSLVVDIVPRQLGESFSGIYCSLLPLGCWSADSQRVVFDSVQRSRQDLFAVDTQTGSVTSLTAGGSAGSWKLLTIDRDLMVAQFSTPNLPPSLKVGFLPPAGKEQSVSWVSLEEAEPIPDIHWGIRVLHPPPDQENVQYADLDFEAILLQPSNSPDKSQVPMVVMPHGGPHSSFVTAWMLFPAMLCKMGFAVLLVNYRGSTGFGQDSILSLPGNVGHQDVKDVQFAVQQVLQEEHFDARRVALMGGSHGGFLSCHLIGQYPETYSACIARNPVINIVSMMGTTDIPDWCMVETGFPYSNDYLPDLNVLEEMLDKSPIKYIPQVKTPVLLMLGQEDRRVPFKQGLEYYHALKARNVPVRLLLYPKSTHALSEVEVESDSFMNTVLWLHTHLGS
Experimental: The carbamoyl triazole regioisomers were separated by gel chromatography and used for subsequent experiments. […] The compounds were screened at concentrations of 10 and 100 nM in mouse T-cell proteomes (FIG. 3e and FIG. 12).
Gel-based competitive ABPP experiments were performed as described previously. For competitive ABPP with FP-rhodamine, proteomes (1 mg/mL in PBS) were treated with FP-rhodamine (2 μM final concentration) in a […] total reaction volume. After 30 minutes at 25° C., the reactions were quenched with 2×SDS-PAGE loading buffer.
Proteomes were incubated with inhibitors for 30 minutes at 37° C. (in vitro) or for 4 h at 37° C. (in situ) at the indicated concentrations (n=3) prior to FP-rhodamine labeling. After SDS-PAGE and in-gel visualization, the percentage enzymatic activity remaining was determined by measuring the integrated optical intensity of the bands using IMAGER® software. IC50 values were determined from a dose-response curve generated using PRISM® software (GraphPad).

[9] = test system: serine hydrolases in mouse tissues; assay: In vivo ABPP analysis of tissues from KLH25-treated mice; details: 25 mg/kg in PEG300, i.p., about 4 hours
Experimental: To assess the degree to which KLH25 is active in vivo, mice were treated with the compound for about 4 hours (25 mg/kg in PEG300, administered intraperitoneally, i.p.), sacrificed, and tissues were harvested for ABPP analysis.

[10] = target: T4, DAGLA (Mus musculus, UniProt Q6WQJ1); assay: Activity against recombinant DAGLA; type: biochemical
T4 construct: Full-length cDNAs encoding serine hydrolases were purchased from Open Biosystems; V5; host or cells: HEK293T
T4 sequence (Q6WQJ1 whole entry): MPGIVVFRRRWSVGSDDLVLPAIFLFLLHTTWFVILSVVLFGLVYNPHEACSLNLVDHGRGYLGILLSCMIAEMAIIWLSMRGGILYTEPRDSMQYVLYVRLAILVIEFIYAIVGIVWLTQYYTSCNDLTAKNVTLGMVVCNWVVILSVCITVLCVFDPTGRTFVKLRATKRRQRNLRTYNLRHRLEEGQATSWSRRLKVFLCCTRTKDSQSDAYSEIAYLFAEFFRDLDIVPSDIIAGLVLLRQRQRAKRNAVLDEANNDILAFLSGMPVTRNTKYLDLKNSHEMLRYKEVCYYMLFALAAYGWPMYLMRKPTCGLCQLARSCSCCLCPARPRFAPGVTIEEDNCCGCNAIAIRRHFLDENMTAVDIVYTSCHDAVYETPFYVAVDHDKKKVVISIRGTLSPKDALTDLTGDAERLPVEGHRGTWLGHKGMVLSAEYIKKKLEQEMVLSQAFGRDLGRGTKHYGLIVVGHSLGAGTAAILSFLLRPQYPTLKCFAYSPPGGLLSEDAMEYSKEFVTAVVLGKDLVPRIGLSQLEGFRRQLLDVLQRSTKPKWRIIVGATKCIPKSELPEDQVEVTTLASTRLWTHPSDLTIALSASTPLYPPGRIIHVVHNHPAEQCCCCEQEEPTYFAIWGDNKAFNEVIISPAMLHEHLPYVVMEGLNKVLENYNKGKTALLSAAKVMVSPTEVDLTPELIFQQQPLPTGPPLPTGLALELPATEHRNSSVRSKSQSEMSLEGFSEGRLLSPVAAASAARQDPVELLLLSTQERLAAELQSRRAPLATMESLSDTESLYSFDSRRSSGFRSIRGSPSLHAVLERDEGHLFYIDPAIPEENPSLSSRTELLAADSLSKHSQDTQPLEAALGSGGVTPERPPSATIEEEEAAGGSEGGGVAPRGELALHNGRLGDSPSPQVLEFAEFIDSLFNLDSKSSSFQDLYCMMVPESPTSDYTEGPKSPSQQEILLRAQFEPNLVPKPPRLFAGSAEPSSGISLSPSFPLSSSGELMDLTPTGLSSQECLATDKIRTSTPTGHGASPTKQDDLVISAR

With `O=C(N1CCCC1)n1cc(-c2ccc(Br)cc2)nn1` [N1 AA80-1] as the molecule, how does the pIC50 [1] read?
Its pIC50 is 7.96.

With `O=C(N1CCCCC1Cc1ccccc1)n1cc(C(O)(c2ccccc2)c2ccccc2)nn1` (stereo not shown) [AA43-2] as the molecule, how does the pIC50 [2] read?
The pIC50 was ~6.70.

And the “activity against DAGLB” value [2]?
The value was “completely blocked probe-labeling of DAGLB”.

And the “off-target activity / selectivity against other serine hydrolases” value [3]?
The value was “off-target activity against several other serine hydrolases, notably ABHD6, KIAA1363, and LYPLA1/2”.

Which results are given for `COCC1CCCCN1C(=O)n1ncc(C(O)(c2ccccc2)c2ccccc2)n1` (stereo not shown) [AA44-2]?
inhibition of ABHD11 ([4]; 10 nM): complete inactivation; pIC50 [4]: 9.00; ABHD11 activity blocked [5]: > 95% and > 97%; pIC50 [6]: 9.77 to 9.85; cross-reactivity with other SHs [7]: no cross-reactivity with APEH, PAFAH2, or other SHs

`COCC1CCCCN1C(=O)n1cc(C(O)(c2ccccc2)c2ccccc2)nn1` (stereo not shown) [N1 AA44-2] was tested. Which pIC50 [4] did it give?
The pIC50 was ~7.24.

For `CCCCCCCCCCC[C@@H](C[C@@H]1OC(=O)[C@H]1CCCCCC)OC(=O)[C@H](CC(C)C)NC=O` [THL, tetrahydrolipstatin, reference compound], which “activity against DAGLB” value [2] is on record?
The value was “blocked”.

`O=C(N1CCCC1)n1ncc(-c2ccc(Br)cc2)n1` [N2 AA80-1] was tested. Which pIC50 [1] did it give?
Its pIC50 is 8.30.

With `O=C(N1CCCCC1Cc1ccccc1)n1cc(-c2ccc(Br)cc2)nn1` (stereo not shown) [KT116] as the molecule, how does the “potency against DAGLB relative to KT117” value [2] read?
The value was “greater than 5 fold”.

How did the pIC50 [8] turn out when `CC(C)CC(O)(CC(C)C)c1cn(C(=O)N2CCCC2)nn1` [N1 AA74-1] was run?
Its pIC50 is ~8.10.

`O=C(N1CCCCC1Cc1ccccc1)n1cc(-c2ccc(OC(F)(F)F)cc2)nn1` (stereo not shown) [KLH25] was tested. Which “inhibition of ABHD6 and FAAH in vivo” value [9] did it give?
The value was “Potent inhibition of ABHD6 and FAAH”.

And the “inhibition of endogenous DAGLA or DAGLB in vivo” value [9]?
The value was “No inhibition of protein bands corresponding to endogenous DAGLA or DAGLB”.

And the “activity against DAGLA” value [10]?
Its value is “exhibited activity against both DAGL enzymes”.

What about the “activity against DAGLB” value [2] of the same molecule?
The value was “significantly more potent against DAGLB in comparison to AA43-2”.

And the “off-target activity / selectivity against other serine hydrolases” value [3]?
Its value is “negligible activity against LYPLA1, LYPLA2, and PAFAH2”.
